In patent publication US20220373534A1, “HUMAN NASOPHARYNGEAL CARCINOMA CELLS DERIVED FROM PATIENT DERIVED XENOGRAFT AND USES THEREOF” (Chang Gung Memorial Hospital, Linkou, priority 2021, published 2022):

Tested on: NPC PDX-B13
Assay: In vivo study of tumor volume in the NPC PDX-B13 mouse model
Parameters: species or system NOD/SCID mice
Details: week 6, read from FIG. 4
Protocol: NPC cell lines, C666-1 (EBV positive) and HK-1 (EBV negative), were maintained in RPMI containing 10% fetal bovine serum (FBS). A cell growth assay and animal studies were conducted as described by CL Hsu et al (“Application of a Patient-Derived Xenograft Model in Cytolytic Viral Activation Therapy for Nasopharyngeal Carcinoma.” Oncotarget 6, no. 31 (2015): 31323-34).
PDX models were generated as follows: NPC tumor samples were obtained from patients with local recurrence or metastasis undergoing biopsy or surgical resection. Each sample was immediately cut into smaller pieces of approximately 3-5 mm in diameter and subcutaneously implanted into the flank regions of anesthetized NOD/SCID mice. The xenograft was excised and reimplanted in small pieces into the next passage after the tumor reached 1-2 cm in diameter.

| Structure (SMILES) | inhibit PDX-B13 tumor growth (reduce tumor volume) |
| --- | --- |
| CN(C)C/C=C/C(=O)Nc1cc2c(Nc3ccc(F)c(Cl)c3)ncnc2cc1O[C@H]1CCOC1 [AFA, Afatinib] | approximately 30% |
| CC(=O)c1c(C)c2cnc(Nc3ccc(N4CCNCC4)cn3)nc2n(C2CCCC2)c1=O [PAL, Palbociclib] | ~70% |
